Reference: ChEMBL document CHEMBL1139986, “Synthesis and biodistribution of 8-iodo-11-(4-methylpiperazino)-5H-dibenzo[b,e][1,4]-diazepine: Iozapine” (Bioorg Med Chem Lett, 2007)

How the values were obtained:
Details in all cases: in vivo
[1] = tested on: Thyroid gland; experiment: Biodistribution in rabbit thyroid at 20 MBq after 3.0 hrs; format: ADME, organism-based, Oryctolagus cuniculus
[2] = tested on: Brain; experiment: Biodistribution in rabbit brain at 20 MBq after 0.5 hrs; format: ADME, organism-based, Oryctolagus cuniculus
[3] = tested on: Thyroid gland; experiment: Biodistribution in rabbit thyroid at 20 MBq after 1 hr; format: ADME, organism-based, Oryctolagus cuniculus
[4] = tested on: Thyroid gland; experiment: Biodistribution in rabbit thyroid at 20 MBq after 2.5 hrs; format: ADME, organism-based, Oryctolagus cuniculus
[5] = tested on: Brain; experiment: Biodistribution in rabbit brain at 20 MBq after 2.0 hrs; format: ADME, organism-based, Oryctolagus cuniculus
[6] = tested on: Lung; experiment: Biodistribution in rabbit lung at 20 MBq; format: ADME, organism-based, Oryctolagus cuniculus
[7] = organism: Oryctolagus cuniculus; experiment: Biodistribution in rabbit whole body at 20 MBq after 1.5 hrs; format: ADME, organism-based
[8] = tested on: Brain; experiment: Biodistribution in rabbit brain at 20 MBq; format: ADME, organism-based, Oryctolagus cuniculus
[9] = organism: Oryctolagus cuniculus; experiment: Biodistribution in rabbit whole body at 20 MBq after 20.0 hrs; format: ADME, organism-based
[10] = tested on: Lung; experiment: Biodistribution in rabbit lung at 20 MBq after 1 hr; format: ADME, organism-based, Oryctolagus cuniculus
[11] = tested on: Thyroid gland; experiment: Biodistribution in rabbit thyroid at 20 MBq after 20.0 hrs; format: ADME, organism-based, Oryctolagus cuniculus
[12] = tested on: Thyroid gland; experiment: Biodistribution in rabbit thyroid at 20 MBq after 2.0 hrs; format: ADME, organism-based, Oryctolagus cuniculus
[13] = tested on: Lung; experiment: Biodistribution in rabbit lung at 20 MBq after 2.0 hrs; format: ADME, organism-based, Oryctolagus cuniculus
[14] = tested on: Lung; experiment: Biodistribution in rabbit lung at 20 MBq after 20.0 hrs; format: ADME, organism-based, Oryctolagus cuniculus
[15] = tested on: Brain; experiment: Biodistribution in rabbit brain at 20 MBq after 1.5 hrs; format: ADME, organism-based, Oryctolagus cuniculus
[16] = tested on: Lung; experiment: Biodistribution in rabbit lung at 20 MBq after 2.5 hrs; format: ADME, organism-based, Oryctolagus cuniculus
[17] = tested on: Brain; experiment: Biodistribution in rabbit brain at 20 MBq after 2.5 hrs; format: ADME, organism-based, Oryctolagus cuniculus
[18] = organism: Oryctolagus cuniculus; experiment: Biodistribution in rabbit whole body at 20 MBq after 3.0 hrs; format: ADME, organism-based
[19] = tested on: Brain; experiment: Biodistribution in rabbit brain at 20 MBq after 3.0 hrs; format: ADME, organism-based, Oryctolagus cuniculus
[20] = tested on: Thyroid gland; experiment: Biodistribution in rabbit thyroid at 20 MBq; format: ADME, organism-based, Oryctolagus cuniculus
[21] = organism: Oryctolagus cuniculus; experiment: Biodistribution in rabbit whole body at 20 MBq after 2.0 hrs; format: ADME, organism-based
[22] = tested on: Lung; experiment: Biodistribution in rabbit lung at 20 MBq after 0.5 hrs; format: ADME, organism-based, Oryctolagus cuniculus
[23] = organism: Oryctolagus cuniculus; experiment: Biodistribution in rabbit whole body at 20 MBq after 0.5 hrs; format: ADME, organism-based
[24] = tested on: Brain; experiment: Biodistribution in rabbit brain at 20 MBq after 20.0 hrs; format: ADME, organism-based, Oryctolagus cuniculus
[25] = tested on: Lung; experiment: Biodistribution in rabbit lung at 20 MBq after 3.0 hrs; format: ADME, organism-based, Oryctolagus cuniculus
[26] = organism: Oryctolagus cuniculus; experiment: Biodistribution in rabbit whole body at 20 MBq; format: ADME, organism-based
[27] = tested on: Lung; experiment: Biodistribution in rabbit lung at 20 MBq after 1.5 hrs; format: ADME, organism-based, Oryctolagus cuniculus
[28] = tested on: Thyroid gland; experiment: Biodistribution in rabbit thyroid at 20 MBq after 1.5 hrs; format: ADME, organism-based, Oryctolagus cuniculus
[29] = organism: Oryctolagus cuniculus; experiment: Biodistribution in rabbit whole body at 20 MBq after 2.5 hrs; format: ADME, organism-based
[30] = tested on: Thyroid gland; experiment: Biodistribution in rabbit thyroid at 20 MBq after 0.5 hrs; format: ADME, organism-based, Oryctolagus cuniculus
[31] = organism: Oryctolagus cuniculus; experiment: Biodistribution in rabbit whole body at 20 MBq after 1 hr; format: ADME, organism-based
[32] = tested on: Brain; experiment: Biodistribution in rabbit brain at 20 MBq after 1 hr; format: ADME, organism-based, Oryctolagus cuniculus

Work on `CN1CCN(C2=Nc3cc([123I])ccc3Nc3ccccc32)CC1` [[123I]I-OZAPINE] yielded a Drug uptake [1] of 1.4 %ID, a Drug uptake [2] of 2.2 %ID and a Drug uptake [3] of 1.4 %ID. The Drug uptake [4] was 1.2 %ID, the Drug uptake [5] was 1.5 %ID and the Drug uptake [6] was 14.7 %ID. For the same compound, the Drug uptake [7] was 97.7 %ID, the Drug uptake [8] was 2.2 %ID and the Drug uptake [9] was 54.6 %ID. For the same compound, the Drug uptake [10] was 10.4 %ID, the Drug uptake [11] was 1.9 %ID and the Drug uptake [12] was 1.4 %ID. It also gave a Drug uptake [13] of 7.6 %ID, a Drug uptake [14] of 2.3 %ID and a Drug uptake [15] of 1.6 %ID. It also gave a Drug uptake [16] of 6 %ID, a Drug uptake [17] of 1.5 %ID and a Drug uptake [18] of 96.9 %ID. It also gave a Drug uptake [19] of 1.2 %ID, a Drug uptake [20] of 1.5 %ID and a Drug uptake [21] of 97.4 %ID. For the same compound, the Drug uptake [22] was 10.7 %ID, the Drug uptake [23] was 98.7 %ID and the Drug uptake [24] was 0.7 %ID. For the same compound, the Drug uptake [25] was 6.4 %ID, the Drug uptake [26] was 100 %ID and the Drug uptake [27] was 8.1 %ID. For the same compound, the Drug uptake [28] was 1.3 %ID, the Drug uptake [29] was 99.4 %ID and the Drug uptake [30] was 1.4 %ID. The Drug uptake [31] was 95.8 %ID and the Drug uptake [32] was 1.8 %ID.
